Results taken from patent US9745325B2, “Fused heterocyclic compound” (Takeda Pharmaceutical Company Limited, priority 2014, dated 2017).

Legend:
[1] = molecular target: T1, CDC2L6/CycC (CDK19) (Homo sapiens, UniProt Q9BWU1); assay: CDK19 inhibitory activity (Kinase Tracer-236 / Eu-anti-GST fluorescence assay); assay type: binding; design: Percent inhibition of CDK19 activity (%): concentration or dose not given beside the values; conditions: test compound concentration given as '1 1.1.1\4' [sic]
T1 construct: purchased Carna Biosciences Inc
T1 sequence (Q9BWU1 whole entry): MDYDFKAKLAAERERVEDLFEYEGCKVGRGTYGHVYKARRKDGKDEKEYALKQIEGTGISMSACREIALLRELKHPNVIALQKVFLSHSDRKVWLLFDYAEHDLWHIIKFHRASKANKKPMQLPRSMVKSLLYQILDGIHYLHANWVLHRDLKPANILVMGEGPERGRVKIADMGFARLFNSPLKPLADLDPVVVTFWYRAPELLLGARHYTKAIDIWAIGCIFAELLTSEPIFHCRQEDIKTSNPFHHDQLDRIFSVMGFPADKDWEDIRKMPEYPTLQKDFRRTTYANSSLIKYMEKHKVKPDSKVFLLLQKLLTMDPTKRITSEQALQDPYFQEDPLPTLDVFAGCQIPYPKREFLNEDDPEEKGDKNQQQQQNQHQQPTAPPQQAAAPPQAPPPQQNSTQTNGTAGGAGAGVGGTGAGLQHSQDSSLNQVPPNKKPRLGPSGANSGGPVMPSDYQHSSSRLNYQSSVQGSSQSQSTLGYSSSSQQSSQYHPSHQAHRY
T1 sequence (P24863 whole entry partner): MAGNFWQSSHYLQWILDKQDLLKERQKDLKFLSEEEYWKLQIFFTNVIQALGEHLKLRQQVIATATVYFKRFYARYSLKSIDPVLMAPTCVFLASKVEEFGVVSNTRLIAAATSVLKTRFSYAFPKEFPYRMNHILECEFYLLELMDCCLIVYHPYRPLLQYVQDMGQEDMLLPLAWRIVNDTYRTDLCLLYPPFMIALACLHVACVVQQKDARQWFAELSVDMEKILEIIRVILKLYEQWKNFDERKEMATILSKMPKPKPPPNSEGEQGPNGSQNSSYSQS
Procedure: (§1) The compound of the present invention was evaluated for its CDK8 inhibitory activity and CDK19 inhibitory activity by the following method. […] The primary diluted solution was dispensed in the amount of 2 μL/well to a 384-well plate, and then, a mixed solution of Eu^3+ Cryptate conjugated mouse monoclonal antibody anti-glutathione S-transferase (Cisbio) diluted 267-fold with an assay buffer and 60 nM Kinase Tracer-236 (Life technologies) was added thereto at 2 μL/well. […] After the addition, the plate was left standing at room temperature for 1 hour, and then, the fluorescence intensity (excitation wavelength 320 nm, fluorescence wavelength 615 nm, 665 nm, delay time 50 μsec) was measured using ann EnVision plate reader (PerkinElmer). The percent inhibition of CDK8 or CDK19 activity by the test compound can be calculated according to the following formula, wherein the fluorescence intensity of a reaction solution in the absence of compound is defined as the control, and the fluorescence intensity of a reaction solution in the presence of 10 μM of control compound is defined as the blank.

[2] = test system: human multiple myeloma RPMI8226 cells; assay: Inhibitory activity against human multiple myeloma RPMI8226 cell growth (CellTiter-Glo); assay type: cell-based; conditions: Homo sapiens, RPMI-8226, 192 h, 1 μM test compound, cultured for 8 days; read-out: Percent inhibition of RPMI8226 cell growth (%)
Procedure: The compound of the present invention was evaluated for its inhibitory activity against human multiple myeloma RPMI8226 cell growth by the following method.
A suspension of human multiple myeloma RPMI8226 cells (purchased from the Health Protection Agency) was inoculated at 40 μL (300 cells/well) to a 384-well plate and cultured at 37° C. for 1 day in a 5% CO2 incubator. After the culture, each test compound solution was added thereto at a test concentration of 1 μM using TECAN D300, and the cells were further cultured for 8 days. After the culture, CellTiter-Glo™ Luminescent Cell Viability Assay reagent (Promega) was added at 40 μL/well to a 384-well plate, and the amount of luminescence was measured using a luminometer. Inhibitory activity against human multiple myeloma RPMI8226 cell growth (percent inhibition (%)) of the test compound was calculated according to the following formula, which is based on the hypothesis that the amount of residual ATP reflects the number of cells. In this formula, 100% control represents the amount of luminescence from a well with only 0.1% DMSO added. Percent inhibition (%)=(1−(amount of luminescence of the test compound)÷(100% control))×100

[3] = molecular target: T2, CDK8/CycC (Homo sapiens, UniProt P49336); assay: CDK8 inhibitory activity (Kinase Tracer-236 / Eu-anti-GST fluorescence assay); assay type: binding; design: Percent inhibition of CDK8 activity (%): concentration or dose not given beside the values; conditions: test compound concentration given as '1 1.1.1\4' [sic]
T2 construct: purchased Carna Biosciences
T2 sequence (P49336 whole entry): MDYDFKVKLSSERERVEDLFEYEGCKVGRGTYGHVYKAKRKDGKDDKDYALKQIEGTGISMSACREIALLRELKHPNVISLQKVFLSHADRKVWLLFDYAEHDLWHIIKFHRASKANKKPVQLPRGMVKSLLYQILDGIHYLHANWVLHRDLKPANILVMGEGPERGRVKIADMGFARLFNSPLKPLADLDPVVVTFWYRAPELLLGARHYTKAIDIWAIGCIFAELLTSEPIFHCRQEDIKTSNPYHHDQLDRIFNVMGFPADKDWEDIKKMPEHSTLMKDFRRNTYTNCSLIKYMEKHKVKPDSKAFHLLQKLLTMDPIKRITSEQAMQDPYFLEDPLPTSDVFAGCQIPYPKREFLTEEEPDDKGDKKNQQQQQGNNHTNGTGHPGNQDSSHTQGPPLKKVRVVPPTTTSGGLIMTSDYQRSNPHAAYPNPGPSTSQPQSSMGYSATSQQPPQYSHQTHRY
T2 sequence (P24863 whole entry partner): as the sequence (P24863 whole entry partner) above
Procedure: as §1

| SMILES | Percent inhibition of CDK19 activity (%) [1] [%] | inhibition at 1 µM [2] [%] | Percent inhibition of CDK8 activity (%) [3] [%] |
| --- | --- | --- | --- |
| NC(=O)c1sc(Oc2ccc(N)nc2)c2c1CCc1cnsc1-2 [Example 93, 8-((6-Aminopyridin-3-yl)oxy)-4,5-dihydrothieno[3,4-g][1,2]benzothiazole-6-carboxamide] | 96 | 63 | 87 |
| COC1CN(C(=O)c2ccc(Oc3sc(C(N)=O)c4c3-c3sncc3CC4)cn2)C1 [Example 111, 8-((6-((3-Methoxyazetidin-1-yl)carbonyl)pyridin-3-yl)oxy)-4,5-dihydrothieno[3,4-g][1,2]benzothiazole-6-carboxamide] | 100 | 58 | 107 |
| CCC(=O)Nc1ccc(Oc2sc(C(N)=O)c3c2-c2sncc2CC3)cn1 [Example 134, 8-((6-(Propionylamino)pyridin-3-yl)oxy)-4,5-dihydrothieno[3,4-g][1,2] benzothiazole-6-carboxamide] | 99 | 59 | 100 |
| CCOCCOc1sc(C(N)=O)c2c1-c1sncc1CC2 [Example 95, 8-(2-Ethoxyethoxy)-4,5-dihydrothieno [3,4-g][1,2]benzothiazole-6-carboxamide] | 89 | 69 | 97 |
| Cc1ncccc1Oc1sc(C(=O)Nc2ncco2)c2c1-c1sncc1CC2 [Example 37, 8-((2-Methylpyridin-3-yl)oxy)-N-(1,3-oxazol-2-yl)-4,5-dihydrothieno[3,4-g][1,2]benzothiazole-6-carboxamide] | 94 | 73 | 95 |
| Cc1nc(N)ccc1Oc1sc(C(N)=O)c2c1-c1sncc1CC2 [Example 29, 8-((6-Amino-2-methylpyridin-3-yl)oxy)-4,5-dihydrothieno[3,4-g][1,2]benzothiazole-6-carboxamide] | 100 | 70 | 98 |
| CC(=O)N(C)c1ccc(Oc2sc(C(N)=O)c3c2-c2sncc2CC3)cn1 [Example 135, 8-((6-(Acetyl(methyl)amino)pyridin-3-yl)oxy)-4,5-dihydrothieno[3,4-g][1,2] benzothiazole-6-carboxamide] | 97 | 55 | 109 |
| Cc1nn(C)cc1Oc1sc(C(N)=O)c2c1-c1sncc1CC2 [Example 47, 8-((1,3-Dimethyl-1H-pyrazol-4-yl)oxy)-4,5-dihydrothieno[3,4-g][1,2] benzothiazole-6-carboxamide] | 100 | 57 | 105 |
| CNC(=O)c1ccc(Oc2sc(C(N)=O)c3c2-c2sncc2CC3)cn1 [Example 17, 8-((6-(Methylcarbamoyl)pyridin-3-yl)oxy)-4,5-dihydrothieno[3,4-g][1,2]benzothiazole-6-carboxamide] | 101 | 66 | 102 |
| Cc1nc(NC(=O)C2(O)CC2)ccc1Oc1sc(C(N)=O)c2c1-c1sncc1CC2 [Example 31, 8-((6-(((1-Hydroxycyclopropyl)carbonyl)amino)-2-methylpyridin-3-yl)oxy)-4,5-dihydrothieno[3,4-g][1,2]benzothiazole-6-carboxamide] | 101 | 59 | 103 |
| NC(=O)c1sc(Oc2ccc(C(=O)N3CCOCC3)cc2)c2c1CCc1cnsc1-2 [Example 3, 8-(4-(Morpholin-4-ylcarbonyl)phenoxy)-4,5-dihydrothieno[3,4-g][1,2]benzothiazole-6-carboxamide] | 99 | 60 | 97 |
| NC(=O)c1sc(Oc2ccc(Br)nc2)c2c1CCc1cnsc1-2 [Example 16, 8-((6-Bromopyridin-3-yl)oxy)-4,5-dihydrothieno[3,4-g][1,2]benzothiazole-6-carboxamide] | 99 | 59 | 98 |
| CN(CCO)C(=O)c1ccc(Oc2sc(C(N)=O)c3c2-c2sncc2CC3)cn1 [Example 105] | 96 | 54 | 99 |
| NC(=O)c1sc(Oc2ccc(C(=O)N3CCCC3)nc2)c2c1CCc1cnsc1-2 [Example 102, 8-((6-(Pyrrolidin-1-ylcarbonyl)pyridin-3-yl)oxy)-4,5-dihydrothieno[3,4-g][1,2] benzothiazole-6-carboxamide] | 100 | 58 | 103 |
| NC(=O)c1sc(Oc2ccc(NC(=O)C3CC3)nc2)c2c1CCc1cnsc1-2 [Example 130, 8-((6-((Cyclopropylcarbonyl)amino)pyridin-3-yl)oxy)-4,5-dihydrothieno [3,4-g][1,2]benzothiazole-6-carboxamide] | 99 | 66 | 101 |
| COCCN(C)C(=O)c1ccc(Oc2sc(C(N)=O)c3c2-c2sncc2CC3)cn1 [Example 101, 8-((6-((2-Methoxyethyl)(methyl)carbamoyl)pyridin-3-yl)oxy)-4,5-dihydrothieno[3,4-g][1,2]benzothiazole-6-carboxamide] | 95 | 65 | 106 |
| CC(C)S(=O)(=O)c1ccc(Oc2sc(C(N)=O)c3c2-c2sncc2CC3)cc1 [Example 50, 8-(4-(isopropylsulfonyl)phenoxy)-4,5-dihydrothieno[3,4-g][1,2]benzothiazole-6-carboxamide] | 99 | 58 | 99 |
| CCCSc1sc(C(N)=O)c2c1-c1sncc1CC2 [Example 52, 8-(Propylsulfanyl)-4,5-dihydrothieno [3,4-g][1,2]benzothiazole-6-carboxamide] | 95 | 65 | 98 |
| COCCNC(=O)c1ccc(Oc2sc(C(N)=O)c3c2-c2sncc2CC3)c(C)n1 [Example 25, 8-((6-((2-Methoxyethyl)carbamoyl)-2-methylpyridin-3-yl)oxy)-4,5-dihydrothieno[3,4-g][1,2] benzothiazole-6-carboxamide] | 100 | 60 | 104 |
| COC1CN(C(=O)c2ccc(Oc3sc(C(N)=O)c4c3-c3sncc3CC4)c(C)n2)C1 [Example 113, 8-((6-((3-Methoxyazetidin-1-yl)carbonyl)-2-methylpyridin-3-yl)oxy)-4,5-dihydrothieno[3,4-g][1,2] benzothiazole-6-carboxamide] | 101 | 68 | 108 |
| NC(=O)c1sc(Oc2cncc(Br)c2)c2c1CCc1cnsc1-2 [Example 92, 8-((5-Bromopyridin-3-yl)oxy)-4,5-dihydrothieno[3,4-g][1,2]benzothiazole-6-carboxamide] | 95 | 58 | 89 |
